In PubChem BioAssay (NCI):
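Results reflect a 48-hour exposure of cells in 96-well plates to compound at five concentrations. Here, GI50 denotes the concentration required for 50% inhibition of growth. The concentration for full growth arrest is given as TGI.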

Assays:
Experiment in all cases: growth of human tumour cells (NCI), 48 h
[1] = system: OVCAR-8 ovarian
[2] = system: COLO 205 colon
[3] = system: SK-MEL-5 melanoma
[4] = system: RXF 393 renal
[5] = system: ACHN renal
[6] = system: KM12 colon
[7] = system: PC-3 prostate
[8] = system: OVCAR-3 ovarian
[9] = system: BT-549 breast
[10] = system: SNB-19 CNS
[11] = system: M14 melanoma
[12] = system: TK-10 renal
[13] = system: CCRF-CEM leukemia
[14] = system: HOP-62 NSCLC
[15] = system: SF-268 CNS
[16] = system: NCI-H226 lung
[17] = system: MALME-3M melanoma
[18] = system: SN12C renal
[19] = system: MOLT-4 leukemia
[20] = system: A498 renal
[21] = system: K-562 leukemia
[22] = system: HCT-116 colon
[23] = system: HT29 colon
[24] = system: LOX IMVI melanoma
[25] = system: 786-0 renal
[26] = system: UACC-257 melanoma
[27] = system: SR leukemia
[28] = system: HOP-92 NSCLC
[29] = system: OVCAR-4 ovarian
[30] = system: HL-60(TB) leukemia
[31] = system: CAKI-1 renal
[32] = system: SW-620 colon
[33] = system: MDA-MB-231 breast
[34] = system: HCT-15 colon
[35] = system: UACC-62 melanoma
[36] = system: NCI/ADR-RES ovarian
[37] = system: SF-539 CNS
[38] = system: SK-MEL-28 melanoma
[39] = system: DU-145 prostate
[40] = system: HS 578T breast
[41] = system: IGROV1 ovarian
[42] = system: HCC-2998 colon
[43] = system: A549 NSCLC
[44] = system: U251 CNS
[45] = system: SNB-75 CNS
[46] = system: UO-31 renal
[47] = system: SF-295 CNS
[48] = system: NCI-H522 lung
[49] = system: NCI-H460 lung
[50] = system: RPMI-8226 leukemia
[51] = system: OVCAR-5 ovarian
[52] = system: NCI-H23 lung
[53] = system: SK-OV-3 ovarian
[54] = system: EKVX NSCLC
[55] = system: MCF7 breast
[56] = system: T-47D breast
[57] = system: SK-MEL-2 melanoma

SMILES: N#Cc1ccc(/C=N/NC(=O)c2[nH]c3ccc(Br)cc3c2-c2ccccc2)s1
- GI50 [1]: 204 nM
- TGI [1]: 2190 nM
- GI50 [2]: 1690 nM
- TGI [2]: 4860 nM
- GI50 [3]: 272 nM
- TGI [3]: 1230 nM
- GI50 [4]: 222 nM
- TGI [4]: 487 nM
- GI50 [5]: 277 nM
- TGI [5]: 9750 nM
- GI50 [6]: 793 nM
- TGI [6]: 18700 nM
- GI50 [7]: 304 nM
- TGI [7]: 12300 nM
- GI50 [8]: 367 nM
- TGI [8]: 15700 nM
- GI50 [9]: 250 nM
- TGI [9]: 1330 nM
- GI50 [10]: 439 nM
- TGI [10]: 16700 nM
- GI50 [11]: 235 nM
- TGI [11]: 14600 nM
- GI50 [12]: 1930 nM
- TGI [12]: 23800 nM
- GI50 [13]: 173 nM
- TGI [13]: > 100000 nM
- GI50 [14]: 519 nM
- TGI [14]: 11600 nM
- GI50 [15]: 1580 nM
- TGI [15]: > 64900 nM
- GI50 [16]: 579 nM
- TGI [16]: 6270 nM
- GI50 [17]: 564 nM
- TGI [17]: 24900 nM
- GI50 [18]: 227 nM
- TGI [18]: 6330 nM
- GI50 [19]: 243 nM
- TGI [19]: 30200 nM
- GI50 [20]: 6540 nM
- TGI [20]: 22500 nM
- GI50 [21]: 109 nM
- TGI [21]: > 100000 nM
- GI50 [22]: 118 nM
- TGI [22]: 11100 nM
- GI50 [23]: 148 nM
- TGI [23]: 6900 nM
- GI50 [24]: 309 nM
- TGI [24]: 1430 nM
- GI50 [25]: 395 nM
- TGI [25]: 13200 nM
- GI50 [26]: 344 nM
- TGI [26]: 12900 nM
- GI50 [27]: 99.2 nM
- TGI [27]: > 38800 nM
- GI50 [28]: 645 nM
- TGI [28]: 11600 nM
- GI50 [29]: 783 nM
- TGI [29]: 30200 nM
- GI50 [30]: 52.9 nM
- TGI [30]: 617 nM
- GI50 [31]: 374 nM
- TGI [31]: 17200 nM
- GI50 [32]: 182 nM
- TGI [32]: 14900 nM
- GI50 [33]: 545 nM
- TGI [33]: 4000 nM
- GI50 [34]: 129 nM
- TGI [34]: 9510 nM
- GI50 [35]: 139 nM
- TGI [35]: 6990 nM
- GI50 [36]: 118 nM
- TGI [36]: 2090 nM
- GI50 [37]: 87.8 nM
- TGI [37]: 543 nM
- GI50 [38]: 847 nM
- TGI [38]: > 37400 nM
- GI50 [39]: 365 nM
- TGI [39]: 13700 nM
- GI50 [40]: 616 nM
- TGI [40]: 24700 nM
- GI50 [41]: 221 nM
- TGI [41]: 9100 nM
- GI50 [42]: 488 nM
- TGI [42]: 9650 nM
- GI50 [43]: 379 nM
- TGI [43]: 13000 nM
- GI50 [44]: 312 nM
- TGI [44]: 5790 nM
- GI50 [45]: 630 nM
- TGI [45]: 5360 nM
- GI50 [46]: 275 nM
- TGI [46]: 17600 nM
- GI50 [47]: 41.4 nM
- TGI [47]: 2330 nM
- GI50 [48]: 78.5 nM
- TGI [48]: 262 nM
- GI50 [49]: 340 nM
- TGI [49]: 2250 nM
- GI50 [50]: 149 nM
- TGI [50]: > 20900 nM
- GI50 [51]: 439 nM
- TGI [51]: 24600 nM
- GI50 [52]: 254 nM
- TGI [52]: 12000 nM
- GI50 [53]: 993 nM
- TGI [53]: 15300 nM
- GI50 [54]: 1210 nM
- TGI [54]: 26300 nM
- GI50 [55]: 110 nM
- TGI [55]: 5870 nM
- GI50 [56]: 2460 nM
- TGI [56]: 27300 nM
- GI50 [57]: 451 nM
- TGI [57]: 16200 nM
